Measurements reported in US6737383B1, “Herbicidal oxadiazolidines” (priority 1999, dated 2004).

Key:
[1] = tested on: crabgrass; assay: Test B pre/postemergence crabgrass; assay type: in vivo, Digitaria sanguinalis
How it was run: (§1)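 Herbicidal effect was estimated by eye on a ten-point control scale after plants spent twelve to sixteen days in a greenhouse following soil or foliar treatment. Foliar sprays targeted plants at one to four leaves; all doses were formulated in a non-phytotoxic solvent with surfactant.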

[2] = tested on: morningglory; assay: Test B pre/postemergence morningglory; assay type: in vivo, Ipomoea hederacea
How it was run: as §1

[3] = tested on: velvetleaf; assay: Test B pre/postemergence velvetleaf; assay type: in vivo, Abutilon theophrasti
How it was run: as §1

[4] = tested on: wheat; assay: Test B pre/postemergence wheat; assay type: in vivo, Triticum aestivum
How it was run: as §1

[5] = tested on: pigweed; assay: Test B pre/postemergence pigweed; assay type: in vivo, Amaranthus retroflexus
How it was run: as §1

[6] = tested on: corn; assay: Test B pre/postemergence corn; assay type: in vivo, Zea mays
How it was run: as §1

[7] = tested on: rice; assay: Test B flood test rice; assay type: in vivo, Oryza sativa
How it was run: (§2)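 Each value is a visual injury score relative to controls, with 10 meaning complete control and 0 no effect. Evaluation took place twelve to sixteen days after the 2-leaf-stage plants were treated and kept in the greenhouse.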

[8] = tested on: surinam grass; assay: Test B pre/postemergence surinam grass; assay type: in vivo, Brachiaria decumbens
How it was run: as §1

[9] = tested on: blackgrass; assay: Test B pre/postemergence blackgrass; assay type: in vivo, Alopecurus myosuroides
How it was run: as §1

[10] = tested on: rape; assay: Test B pre/postemergence rape; assay type: in vivo, Brassica napus
How it was run: as §1

[11] = tested on: giant foxtail; assay: Test B pre/postemergence giant foxtail; assay type: in vivo, Setaria faberii
How it was run: as §1

[12] = tested on: purple nutsedge; assay: Test B pre/postemergence purple nutsedge; assay type: in vivo, Cyperus rotundus
How it was run: as §1

[13] = tested on: sugar beet; assay: Test B pre/postemergence sugar beet; assay type: in vivo, Beta vulgaris
How it was run: as §1

[14] = tested on: duck salad; assay: Test B flood test duck salad; assay type: in vivo, Heteranthera limosa
How it was run: as §2

[15] = tested on: cocklebur; assay: Test B pre/postemergence cocklebur; assay type: in vivo, Xanthium strumarium
How it was run: as §1

[16] = tested on: smallflower flatsedge; assay: Test B flood test smallflower flatsedge; assay type: in vivo, Cyperus difformis
How it was run: as §2

[17] = Postemergence, Rate 250 g/ha, scale 0 to 10
[18] = Postemergence, Rate 500 g/ha, scale of 0 to 10 where 0 is no effect and 10 is complete control
[19] = Preemergence, Rate 125 g/ha, scale of 0 to 10 where 0 is no effect and 10 is complete control
[20] = Preemergence, Rate 250 g/ha, scale 0 to 10, 0 is no effect, 10 is complete control
[21] = Preemergence, Rate 500 g/ha, scale 0 to 10, 0 is no effect, 10 is complete control
[22] = Rate 62 g/ha, Postemergence, scale 0 to 10 (0 no effect, 10 complete control)
[23] = Rate 125 g/ha, Postemergence, scale 0 to 10, 0 is no effect, 10 is complete control
[24] = Preemergence, Rate 62 g/ha, scale 0 to 10 (0 no effect, 10 complete control)
[25] = Postemergence block (flood test species), Rate 250 g/ha, scale 0 to 10
[26] = Postemergence section (flood test species), Rate 500 g/ha, scale of 0 to 10 where 0 is no effect and 10 is complete control
[27] = Rate 62 g/ha, Postemergence (flood test), scale 0 to 10, 0 no effect, 10 complete control
[28] = Rate 125 g/ha, Postemergence section (flood test species), scale 0 to 10, 0 is no effect, 10 is complete control

CC(C)N(C(=O)n1oc(=O)n(C(C)C#N)c1=O)c1ccccc1 (stereo not shown) [Compound 435]
Crabgrass plant response rating [1, 17]: 7
Crabgrass plant response rating [1, 18]: 8
Plant response rating, Crabgrass [1, 19]: 2
Crabgrass plant response rating [1, 20]: 6
Crabgrass plant response rating [1, 21]: 9
Crabgrass plant response rating [1, 22]: 0
Crabgrass plant response rating [1, 23]: 2
Morningglory plant response rating [2, 17]: 6
Morningglory plant response rating [2, 18]: 9
Plant response rating, Morningglory [2, 24]: 0
Plant response rating, Morningglory [2, 19]: 0
Morningglory plant response rating [2, 20]: 0
Morningglory plant response rating [2, 21]: 0
Morningglory plant response rating [2, 22]: 1
Morningglory plant response rating [2, 23]: 2
Velvetleaf plant response rating [3, 17]: 0
Velvetleaf plant response rating [3, 18]: 0
Plant response rating, Velvetleaf [3, 24]: 0
Plant response rating, Velvetleaf [3, 19]: 0
Velvetleaf plant response rating [3, 20]: 1
Velvetleaf plant response rating [3, 21]: 2
Velvetleaf plant response rating [3, 22]: 0
Velvetleaf plant response rating [3, 23]: 0
Wheat plant response rating [4, 17]: 0
Wheat plant response rating [4, 18]: 0
Plant response rating, Wheat [4, 24]: 0
Plant response rating, Wheat [4, 19]: 0
Wheat plant response rating [4, 20]: 0
Wheat plant response rating [4, 21]: 0
Wheat plant response rating [4, 22]: 0
Wheat plant response rating [4, 23]: 0
Redroot pigweed plant response rating [5, 17]: 2
Redroot pigweed plant response rating [5, 18]: 2
Plant response rating, Redroot pigweed [5, 24]: 2
Plant response rating, Redroot pigweed [5, 19]: 2
Redroot pigweed plant response rating [5, 20]: 4
Redroot pigweed plant response rating [5, 21]: 8
Redroot pigweed plant response rating [5, 22]: 0
Redroot pigweed plant response rating [5, 23]: 0
Corn plant response rating [6, 17]: 0
Corn plant response rating [6, 18]: 0
Plant response rating, Corn [6, 24]: 0
Plant response rating, Corn [6, 19]: 0
Corn plant response rating [6, 20]: 0
Corn plant response rating [6, 21]: 0
Corn plant response rating [6, 22]: 0
Corn plant response rating [6, 23]: 0
Rice plant response rating [7, 25]: 0
Rice plant response rating [7, 26]: 0
Rice plant response rating [7, 27]: 0
Rice plant response rating [7, 28]: 0
B. signalgrass plant response rating ([8]; Postemergence, Rate 250 g/ha, scale 0 to 10, 0 no effect, 10 complete control): 1
B. signalgrass plant response rating [8, 18]: 3
Plant response rating, B. signalgrass [8, 24]: 0
Plant response rating, B. signalgrass [8, 19]: 0
B. signalgrass plant response rating [8, 20]: 0
B. signalgrass plant response rating [8, 21]: 1
B. signalgrass plant response rating [8, 22]: 0
B. signalgrass plant response rating [8, 23]: 0
Blackgrass plant response rating [9, 17]: 6
Blackgrass plant response rating [9, 18]: 8
Plant response rating, Blackgrass [9, 24]: 0
Plant response rating, Blackgrass [9, 19]: 0
Blackgrass plant response rating [9, 20]: 0
Blackgrass plant response rating [9, 21]: 2
Blackgrass plant response rating [9, 22]: 0
Blackgrass plant response rating [9, 23]: 0
Rape plant response rating [10, 17]: 0
Rape plant response rating [10, 18]: 0
Plant response rating, Rape [10, 24]: 0
Plant response rating, Rape [10, 19]: 0
Rape plant response rating [10, 20]: 0
Rape plant response rating [10, 21]: 0
Rape plant response rating [10, 22]: 0
Rape plant response rating [10, 23]: 0
Giant foxtail plant response rating [11, 17]: 8
Giant foxtail plant response rating [11, 18]: 9
Plant response rating, Giant foxtail [11, 24]: 0
Plant response rating, Giant foxtail [11, 19]: 2
Giant foxtail plant response rating [11, 20]: 3
Giant foxtail plant response rating [11, 21]: 9
Giant foxtail plant response rating [11, 22]: 0
Giant foxtail plant response rating [11, 23]: 3
Nutsedge plant response rating [12, 17]: 0
Nutsedge plant response rating [12, 18]: 3
Plant response rating, Nutsedge [12, 24]: 0
Plant response rating, Nutsedge [12, 19]: 0
Nutsedge plant response rating [12, 20]: 0
Nutsedge plant response rating [12, 21]: 0
Nutsedge plant response rating [12, 22]: 0
Nutsedge plant response rating [12, 23]: 0
Sugarbeets plant response rating [13, 17]: 0
Sugarbeets plant response rating [13, 18]: 0
Plant response rating, Sugarbeets [13, 24]: 0
Plant response rating, Sugarbeets [13, 19]: 0
Sugarbeets plant response rating [13, 20]: 0
Sugarbeets plant response rating [13, 21]: 1
Sugarbeets plant response rating [13, 22]: 0
Sugarbeets plant response rating [13, 23]: 0
Ducksalad plant response rating [14, 25]: 0
Ducksalad plant response rating [14, 26]: 0
Ducksalad plant response rating [14, 27]: 0
Ducksalad plant response rating [14, 28]: 0
Cocklebur plant response rating [15, 17]: 0
Cocklebur plant response rating [15, 18]: 0
Plant response rating, Cocklebur [15, 24]: 0
Plant response rating, Cocklebur [15, 19]: 0
Cocklebur plant response rating [15, 20]: 0
Cocklebur plant response rating [15, 21]: 0
Cocklebur plant response rating [15, 22]: 0
Cocklebur plant response rating [15, 23]: 0
S. Flatsedge plant response rating [16, 25]: 0
S. Flatsedge plant response rating [16, 26]: 0
S. Flatsedge plant response rating [16, 27]: 0
S. Flatsedge plant response rating [16, 28]: 0
